Legend:
PD-1/PD-L1 complex = PD-1/PD-L1 complex (Homo sapiens, UniProt Q9NZQ7); conditions: for IC50 (nM), SAR toward PD-L1 based on the HTRF methodology / IC50: 5 nM hPD-L1, 50 nM hPD-1, 10f, 10l, 10p IC50 measured with 6 concentrations, remaining compounds estimated from scouting mode (50 and 5 nM) by translation of average Hill's fits; for IC50: read-out: IC50 (nM), SAR toward PD-L1 based on the HTRF methodology; for activity towards dissociating the PD-1/PD-L1 complex: one-point experiment at 50 and 5 nM concentrations of each inhibitor
Protocol: Homogenous Time Resolved Fluorescence
HTRF was performer using the certified Cis-Bio assay according to the manufacturer’s guidelines.
experiments were performed at 5 nM of hPD-L1 and 50 nM of hPD-1 in the final formulation at 20 µL final
After mixing all components according to Cis-Bio protocol, the plate was left for 1h incubation
at room temperature followed by TR-FRET measurement on Tecan Spark 20M. To determine the activity of tested
compounds data was collected for 2 different concentrations of the ligand: 50 nM and 5 nM in the final volume.
All measurements were performed on two individual
dilution series, unless states otherwise. Collected data was background subtracted on the negative control,
normalized on the positive control, averaged and for IC50 determination fitted with normalized Hill’s equation to
determine the IC50 value using Mathematica 12. For remaining compounds, which were measured in scouting
mode, the inhibitory constants were approximated by translation of the average Hill’s fits of fully described
compounds to match the experimental datapoints. Since all compounds reported here are closely related, the slope
of Hill’s fit that determines the shape of the curve is therefore similar across them.

human PD-L1 (hPD-L1) = target: T1, human PD-L1 (hPD-L1) (Homo sapiens, UniProt Q9NZQ7); assay: 1H NMR titration experiment with hPD-L1; format: binding; conditions: molar ratio of protein to inhibitor 1 : 1; PBS pH 7.4, 0.2 mM PD-L1
T1 construct: PD-L1 gene (amino acids 18-134); made in house
Protocol: The corresponding behaviour is characteristic of hPD-L1 oligomerization, previously observed by our group with BMS reference compounds.[20]
Fig. 2 Aliphatic part of the ^1H NMR spectra of PD-L1 with tetrazole-based inhibitors. ^1H NMR spectra of hPD-L1 protein (blue), PD-L1 and compounds: (A) 10f, (B) 10p, and (C) 10l in protein to inhibitor molar ratios of 1 : 1 (red) and 1 : 10 (green), respectively.
NMR spectra were recorded in PBS pH 7.4 containing 10% (v/v) of D2O added to the samples to provide the lock signal. Water suppression was carried out using the WATERGATE pulse sequence. All the spectra were recorded at 300 K using a Bruker Avance III 600 MHz spectrometer. The spectra were recorded at the protein/ligand at the molar ratio 1:1 and 1:10. The sample were prepared by adding the appropriate amounts of inhibitor, from 50 mM ligand stock solution in DMSO-d6, to the protein solution of PD-L1 at a concentration of 0.2 mM. Spectra were visualized using TopSpin 3.2
Protein expression and purification
E. coli strain BL21 was transformed with pET-21b plasmid carrying PD-L1 gene (amino acids 18-134). The bacteria were cultured in LB at 37°C until OD600nm of 0.6 when the recombinant protein production was induced with 1 mM IPTG. The protein production was continued overnight. Inclusion bodies were collected by centrifugation, washed twice with 50 mM Tris-HCl pH 8.0 containing 200 mM NaCl, 10 mM EDTA, 10 mM 2-mercaptoethanol and 0.5% Triton X-100, followed by a single wash with the same buffer but with no Triton X-100. The washed inclusion bodies were resuspended overnight in 50 mM Tris-HCl pH 8.0, 6 M GuHCl, 200 mM NaCl and 10 mM 2-mercaptoethanol and clarified with centrifugation. Refolding of PD-L1 was performed by drop-wise dilution into 0.1 M Tris-HCl pH 8.0 containing 1 M L-arginine hydrochloride, 0.25 mM oxidized glutathione and 0.25 mM reduced glutathione. […]
7.4. The quality of the refolded protein was evaluated by SDS-PAGE and NMR. […]

PD-L1 = tested on: PD-L1; set-up: method as in PMID 35585982; conditions: printed in Fig. 1B, patented PD-L1 dimerizers by Maxinovel Pharma; cited from earlier work

PD-1/PD-L1 complex, sequence (Q9NZQ7 19-238 limits assumed, one chain of several): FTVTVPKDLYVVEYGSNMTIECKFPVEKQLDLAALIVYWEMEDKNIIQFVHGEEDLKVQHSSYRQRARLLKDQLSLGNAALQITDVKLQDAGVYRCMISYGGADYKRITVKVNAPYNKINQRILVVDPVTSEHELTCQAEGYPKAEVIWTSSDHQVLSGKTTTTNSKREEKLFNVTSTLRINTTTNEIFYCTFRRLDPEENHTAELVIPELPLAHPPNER
T1 sequence (Q9NZQ7 18-134): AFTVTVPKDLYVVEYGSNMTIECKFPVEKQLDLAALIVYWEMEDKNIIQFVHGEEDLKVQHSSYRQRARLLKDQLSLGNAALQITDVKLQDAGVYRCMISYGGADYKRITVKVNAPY

Structure (SMILES): Cc1c(/C=C/n2nnnc2C(CC(C)C)NCCN2CCOCC2)cccc1-c1ccccc1 (centres unmarked) [10a]
- IC50 (nM), SAR toward PD-L1 based on the HTRF methodology (PD-1/PD-L1 complex): Inactive

Structure (SMILES): COc1cccc(CNC(c2nnnn2/C=C/c2cccc(-c3ccccc3)c2C)C(C)C)c1OC (centres unmarked) [10b]
- IC50 (nM), SAR toward PD-L1 based on the HTRF methodology (PD-1/PD-L1 complex): Inactive

Structure (SMILES): Cc1c(/C=C/n2nnnc2C(CCl)NCc2ccco2)cccc1-c1ccccc1 (centres unmarked) [10c]
- IC50 (nM), SAR toward PD-L1 based on the HTRF methodology (PD-1/PD-L1 complex): Inactive

Structure (SMILES): Cc1c(/C=C/n2nnnc2C(NCc2ccncc2)C2CC2)cccc1-c1ccccc1 (centres unmarked) [10d]
- IC50 (PD-1/PD-L1 complex): 1770 nM

Structure (SMILES): Cc1c(/C=C/n2nnnc2CNCC(C)(C)C)cccc1-c1ccccc1 [10e]
- IC50 (nM), SAR toward PD-L1 based on the HTRF methodology (PD-1/PD-L1 complex): Inactive

Structure (SMILES): CCNCc1nnnn1/C=C/c1cccc(-c2ccccc2)c1C [10f]
- hPD-L1 oligomerization upon addition of the ligand (broadening of hPD-L1 proton signals) (human PD-L1 (hPD-L1)): protein oligomerization
- activity towards dissociating the PD-1/PD-L1 complex (PD-1/PD-L1 complex): better activity
- IC50 (PD-1/PD-L1 complex): 408 nM

Structure (SMILES): Cc1c(/C=C/n2nnnc2C(C)NCCCO)cccc1-c1ccccc1 (centres unmarked) [10g]
- IC50 (PD-1/PD-L1 complex): 1800 nM

Structure (SMILES): Cc1c(/C=C/n2nnnc2CN[C@]23CC4CC(C[C@@](O)(C4)C2)C3)cccc1-c1ccccc1 [10h]
- IC50 (nM), SAR toward PD-L1 based on the HTRF methodology (PD-1/PD-L1 complex): Inactive

Structure (SMILES): Cc1c(/C=C/n2nnnc2CN2CCCCOC2)cccc1-c1ccccc1 [10i]
- IC50 (PD-1/PD-L1 complex): 460 nM

Structure (SMILES): Cc1c(/C=C/n2nnnc2CNCCCCCO)cccc1-c1ccccc1 [10j]
- IC50 (PD-1/PD-L1 complex): 1840 nM

Structure (SMILES): Cc1c(/C=C/n2nnnc2CN2CCOC2)cccc1-c1ccccc1 [10k]
- IC50 (PD-1/PD-L1 complex): 1000 nM

Structure (SMILES): Cc1c(/C=C/n2nnnc2CN2CCCOC2)cccc1-c1ccccc1 [10l]
- hPD-L1 oligomerization upon addition of the ligand (broadening of hPD-L1 proton signals) (human PD-L1 (hPD-L1)): protein oligomerization
- activity towards dissociating the PD-1/PD-L1 complex (PD-1/PD-L1 complex): better activity
- IC50 (PD-1/PD-L1 complex): 944 nM

Structure (SMILES): Cc1c(/C=C/n2nnnc2CN[C@]23CC4CC(C[C@@](O)(C4)C2)C3)cccc1-c1ccc2c(c1)OCCO2 [10m]
- IC50 (nM), SAR toward PD-L1 based on the HTRF methodology (PD-1/PD-L1 complex): Inactive

Structure (SMILES): Cc1c(/C=C/n2nnnc2CNCCCCCO)cccc1-c1ccc2c(c1)OCCO2 [10n]
- IC50 (PD-1/PD-L1 complex): 2850 nM

Structure (SMILES): Cc1c(/C=C/n2nnnc2CNCCCCO)cccc1-c1ccc2c(c1)OCCO2 [10o]
- IC50 (PD-1/PD-L1 complex): 1130 nM

Structure (SMILES): Cc1c(/C=C/n2nnnc2C(C)NCCCO)cccc1-c1ccc2c(c1)OCCO2 (centres unmarked) [10p]
- hPD-L1 oligomerization upon addition of the ligand (broadening of hPD-L1 proton signals) (human PD-L1 (hPD-L1)): protein oligomerization
- activity towards dissociating the PD-1/PD-L1 complex (PD-1/PD-L1 complex): better activity
- IC50 (PD-1/PD-L1 complex): 254 nM

Structure (SMILES): Cc1c(/C=C/n2nnnc2CNCCO)cccc1-c1ccc2c(c1)OCCO2 [10q]
- IC50 (nM), SAR toward PD-L1 based on the HTRF methodology (PD-1/PD-L1 complex): Inactive

Structure (SMILES): Cc1c(/C=C/n2nnnc2CN2CCCOC2)cccc1-c1ccc2c(c1)OCCO2 [10r]
- IC50 (PD-1/PD-L1 complex): 1130 nM

Structure (SMILES): Cc1c(COc2cc(OCc3cccc(C#N)c3)c(CN3C[C@H](O)C[C@@H]3C(=O)O)cc2Cl)cccc1-c1ccc2c(c1)OCCO2 [BMS-1166, reference compound]
- undissociated PD-1/PD-L1 complex (PD-1/PD-L1 complex; one-point experiment, 50 and 5 nM concentrations of inhibitor): 42.1 ± 6.4%

Structure (SMILES): Cc1c(/C=C/c2cc(CNC(C)(CO)C(=O)O)ccc2C(F)(F)F)cccc1-c1ccc2c(c1)OCCO2 (centres unmarked) [MAX-10181]
- IC50 (PD-L1): 18 nM

Reference: publication PMC11042242, “1,5-Disubstituted tetrazoles as PD-1/PD-L1 antagonists” (RSC Medicinal Chemistry, 2024)
